This passage reports inhibition results from patent US9440982B2 (Eolas Therapeutics, Inc., priority 2012, dated 2016).

This series concerns the target T1, CYP3A4 (Homo sapiens, UniProt P08684).
T1 construct: pre-incubated with human liver microsomes and NADPH; from tissue; host or cells: human liver microsomes
As to the kind of experiment: Cytochrome P450 inhibition assay (midazolam hydroxylation). It is filed as in vitro ADME. To be noted: human, human liver microsomes, probe midazolam (hydroxylation to 1′-hydroxymidazolam), 10 μM test compound, midazolam at approximately its Km. As for the experimental part: Compounds were tested for the potential to induce drug-drug interactions by inhibition of the cytochrome P450 3A4 isoform. The assay evaluated the metabolism of a specific marker substrate (CYP3A4, midazolam hydroxylation to 1′-hydroxymidazolam) in the presence or absence of 10 μM test compound. The concentration of the marker substrate was approximately its Km (Dixit et al., Biopharm. Drug Dispos. 2007, 28(5), 257-262). A specific inhibitor for the isoform was included in each run to validate the system. An appropriate positive control inhibitor was used. Mechanism-based inhibition was investigated where warranted using a classical method. To evaluate time-dependent inhibition, parallel samples may have been included where […] was pre-incubated with human liver microsomes and NADPH for 30 min prior to the addition of the P450 substrate. The percent inhibition of the pre-incubated and non-pre-incubated samples were compared as a preliminary evaluation of time-dependent inhibition.
(In general: Liver microsomes are vesicles of endoplasmic reticulum, rich in cytochrome P450 enzymes.)

T1 sequence (P08684 whole entry): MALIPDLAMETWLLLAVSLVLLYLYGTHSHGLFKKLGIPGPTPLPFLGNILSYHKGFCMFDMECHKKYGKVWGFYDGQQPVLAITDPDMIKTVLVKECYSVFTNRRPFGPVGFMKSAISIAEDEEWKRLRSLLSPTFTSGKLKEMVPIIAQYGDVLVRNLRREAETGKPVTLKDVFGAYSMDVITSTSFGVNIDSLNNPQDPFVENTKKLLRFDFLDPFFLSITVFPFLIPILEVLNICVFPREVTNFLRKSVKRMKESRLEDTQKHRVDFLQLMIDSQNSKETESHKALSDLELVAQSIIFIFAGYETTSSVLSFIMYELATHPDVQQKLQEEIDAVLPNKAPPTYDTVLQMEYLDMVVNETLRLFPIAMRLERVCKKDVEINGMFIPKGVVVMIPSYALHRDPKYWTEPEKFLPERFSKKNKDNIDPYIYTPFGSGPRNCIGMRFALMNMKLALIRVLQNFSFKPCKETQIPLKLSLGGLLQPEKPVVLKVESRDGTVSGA

With `Cc1ccc(-n2ccnc2)c(C(=O)N2CCC[C@@H](C)[C@H]2CNc2nc3cc(Cl)ccc3o2)c1` [Example A33, (2-(1H-Imidazol-1-yl)-5-methylphenyl)((2S,3R)-2-(((5-chlorobenzo[d]oxazol-2-yl)amino)methyl)-3-methylpiperidin-1-yl)methanone], the inhibition – broadly, the percentage by which the read-out fell short of the control – at 10 µM amounted to 98%.

Take `Cc1ccc(-c2cncs2)c(C(=O)N2CCC[C@@H](C)[C@H]2CNc2nc3cc(Cl)ccc3o2)c1` [Example A34, ((2S,3R)-2-(((5-Chlorobenzo[d]oxazol-2-yl)amino)methyl)-3-methylpiperidin-1-yl)(5-methyl-2-(thiazol-5-yl)phenyl)methanone]: the inhibition at 10 µM was 99%.

The compound `Cc1ccc(-c2nccc(C)n2)c(C(=O)N2CCC[C@@H](C)[C@H]2CNc2nc3cc(Cl)ccc3o2)c1` [Example A35, ((2S,3R)-2-(((5-Chlorobenzo[d]oxazol-2-yl)amino)methyl)-3-methylpiperidin-1-yl)(5-methyl-2-(4-methylpyrimidin-2-yl)phenyl)methanone] displayed an inhibition at 10 µM of 92%.

Compound `Cc1ccc(-c2ccnn2C)c(C(=O)N2CCC[C@@H](C)[C@H]2CNc2nc3cc(Cl)ccc3o2)c1` [Example A36, ((2S,3R)-2-(((5-Chlorobenzo[d]oxazol-2-yl)amino)methyl)-3-methylpiperidin-1-yl)(5-methyl-2-(1-methyl-1H-pyrazol-5-yl)phenyl)methanone] returned an inhibition at 10 µM of 97%.

The compound `Cc1ccc(-c2ccc(C)nc2)c(C(=O)N2CCC[C@@H](C)[C@H]2CNc2nc3cc(Cl)ccc3o2)c1` [Example A38, ((2S,3R)-2-(((5-Chlorobenzo[d]oxazol-2-yl)amino)methyl)-3-methylpiperidin-1-yl)(5-methyl-2-(6-methylpyridin-3-yl)phenyl)methanone] came in with an inhibition at 10 µM of 96%.

As for `COc1ncc(-c2ccc(C)cc2C(=O)N2CCC[C@@H](C)[C@H]2CNc2nc3cc(Cl)ccc3o2)cn1` [Example A39, ((2S,3R)-2-(((5-Chlorobenzo[d]oxazol-2-yl)amino)methyl)-3-methylpiperidin-1-yl) (2-(2-methoxypyrimidin-5-yl)-5-methylphenyl)methanone], at 10 µM the inhibition was 96%.

For the compound `Cc1ccc(NC[C@@H]2[C@H](C)CCCN2C(=O)c2cc(C)ccc2-n2nccn2)nc1` [Example A48, ((2S,3R)-3-Methyl-2-(((5-methylpyridin-2-yl)amino)methyl)piperidin-1-yl)(5-methyl-2-(2H-1,2,3-triazol-2-yl)phenyl)methanone], testing at 10 µM gave an inhibition of 74%.

For `Cc1ccc(-c2ccc(F)cc2)c(C(=O)N2CCC[C@@H](C)[C@H]2CNc2ccc(C(F)(F)F)cn2)n1` [Example A73, (3-(4-Fluorophenyl)-6-methylpyridin-2-yl)((2S,3R)-3-methyl-2-(((5-(trifluoromethyl)pyridin-2-yl)amino)methyl)piperidin-1-yl)methanone], 10 µM produced 76% inhibition.

Take `Cc1ccc(-c2cnn(C)c2)c(C(=O)N2CCC[C@@H](C)[C@H]2CNc2ccc(C(F)(F)F)cn2)n1` [Example A74, ((2S,3R)-3-Methyl-2-(((5-(trifluoromethyl)pyridin-2-yl)amino)methyl)piperidin-1-yl)(6-methyl-3-(1-methyl-H-pyrazol-4-yl)pyridin-2-yl)methanone]: the inhibition at 10 µM was 74%.

`Cc1ccc(-n2nccn2)c(C(=O)N2CCC[C@@H](C)[C@H]2CNc2cccc(C#N)n2)c1` [Example A81, 6-((((2S,3R)-3-Methyl-1-(5-methyl-2-(2H-1,2,3-triazol-2-yl)benzoyl)piperidin-2-yl)methyl)amino)picolinonitrile] returned an inhibition at 10 µM of 67%.

The compound `Cc1ccc(-c2cnn(C)c2)c(C(=O)N2CCC[C@@H](C)[C@H]2CNc2ncc(C(F)(F)F)cc2F)c1` [Example A83, ((2S,3R)-2-(((3-Fluoro-5-(trifluoromethyl)pyridin-2-yl)amino)methyl)-3-methylpiperidin-1-yl)(5-methyl-2-(1-methyl-1H-pyrazol-4-yl)phenyl)methanone] yielded an inhibition at 10 µM of 97%.

`Cc1ccc(-c2cnn(C)c2)c(C(=O)N2CCC[C@@H](C)[C@H]2CNc2cccc(C#N)n2)c1` [Example A86, 6-((((2S,3R)-3-Methyl-1-(5-methyl-2-(1-methyl-1H-pyrazol-4-yl)benzoyl)piperidin-2-yl)methyl)amino)picolinonitrile] yielded an inhibition at 10 µM of 95%.

Take `Cc1ccc(-n2nccn2)c(C(=O)N2CCC[C@@H](C)[C@H]2CNc2cccc(C(F)(F)F)n2)c1` [Example A89, ((2S,3R)-3-Methyl-2-(((6-(trifluoromethyl)pyridin-2-yl)amino)methyl)piperidin-1-yl)(5-methyl-2-(2H-1,2,3-triazol-2-yl)phenyl)methanone]: at 10 µM the inhibition was 92%.

In turn, `Cc1ccc(-n2nccn2)c(C(=O)N2CCC[C@@H](C)[C@H]2CNc2ncccc2C#N)c1` [Example A90, 2-((((2S,3R)-3-Methyl-1-(5-methyl-2-(2H-1,2,3-triazol-2-yl)benzoyl)piperidin-2-yl)methyl)amino)nicotinonitrile] gave an inhibition at 10 µM of 33%.

Compound `Cc1ccc(-c2cnn(C)c2)c(C(=O)N2CCC[C@@H](C)[C@H]2CNc2cccc(C(F)(F)F)n2)c1` [Example A94, ((2S,3R)-3-Methyl-2-(((6-(trifluoromethyl)pyridin-2-yl)amino)methyl)piperidin-1-yl)(5-methyl-2-(1-methyl-1H-pyrazol-4-yl)phenyl)methanone] had an inhibition at 10 µM of 99%.

In turn, `Cc1ccc(-c2cnn(C)c2)c(C(=O)N2CCC[C@@H](C)[C@H]2CNc2ncc(F)cc2F)c1` [Example A96, ((2S,3R)-2-(((3,5-Difluoropyridin-2-yl)amino)methyl)-3-methylpiperidin-1-yl)(5-methyl-2-(1-methyl-1H-pyrazol-4-yl)phenyl)methanone] showed an inhibition at 10 µM of 92%.

Regarding `Cc1ccc(-c2cnn(C)c2)c(C(=O)N2CCC[C@@H](C)[C@H]2CNc2ncc(Cl)cc2F)c1` [Example A97, ((2S,3R)-2-(((5-Chloro-3-fluoropyridin-2-yl)amino)methyl)-3-methylpiperidin-1-yl)(5-methyl-2-(1-methyl-1H-pyrazol-4-yl)phenyl)methanone], at 10 µM the inhibition was 98%.

`COc1cccnc1NC[C@@H]1[C@H](C)CCCN1C(=O)c1cc(C)ccc1-c1cnn(C)c1` [Example A101, ((2S,3R)-2-(((3-Methoxypyridin-2-yl)amino)methyl)-3-methylpiperidin-1-yl)(5-methyl-2-(1-methyl-1H-pyrazol-4-yl)phenyl)methanone] gave an inhibition at 10 µM of 83%.

For the compound `Cc1ccc(-n2nccn2)c(C(=O)N2CCC[C@@H](C)[C@H]2CNc2nnc(C(F)(F)F)s2)c1` [Example A102, ((2S,3R)-3-Methyl-2-(((5-(trifluoromethyl)-1,3,4-thiadiazol-2-yl)amino)methyl)piperidin-1-yl)(5-methyl-2-(2H-1,2,3-triazol-2-yl)phenyl)methanone], the inhibition at 10 µM is 48%.

For the compound `Cc1ccc(-c2cnn(C)c2)c(C(=O)N2CCC[C@@H](C)[C@H]2CNc2nnc(C(F)(F)F)s2)c1` [Example A103, ((2S,3R)-3-Methyl-2-(((5-(trifluoromethyl)-1,3,4-thiadiazol-2-yl)amino)methyl)piperidin-1-yl)(5-methyl-2-(1-methyl-1H-pyrazol-4-yl)phenyl)methanone], 10 µM produced 95% inhibition.

Compound `Cc1ccc(-c2cccc(C)n2)c(C(=O)N2CCC[C@@H](C)[C@H]2CNc2ccc(C(F)(F)F)cn2)c1` [Example A104, ((2S,3R)-3-Methyl-2-(((5-(trifluoromethyl)pyridin-2-yl)amino)methyl)piperidin-1-yl)(5-methyl-2-(6-methylpyridin-2-yl)phenyl)methanone] returned an inhibition at 10 µM of 91%.

For `Cc1ccc(-c2cnn(C)c2)c(C(=O)N2CCC[C@@H](C)[C@H]2CNc2ccc(Cl)cn2)c1` [Example A105, ((2S,3R)-2-(((5-Chloropyridin-2-yl)amino)methyl)-3-methylpiperidin-1-yl)(5-methyl-2-(1-methyl-1H-pyrazol-4-yl)phenyl)methanone], the inhibition at 10 µM worked out at 96%.

With `Cc1ccc(-n2ccc(C)n2)c(C(=O)N2CCC[C@@H](C)[C@H]2CNc2ccc(C(F)(F)F)cn2)c1` [Example A108, ((2S,3R)-3-Methyl-2-(((5-(trifluoromethyl)pyridin-2-yl)amino)methyl)piperidin-1-yl)(5-methyl-2-(3-methyl-1H-pyrazol-1-yl)phenyl)methanone], testing at 10 µM gave an inhibition of 88%.

`Cc1ccc(-n2cc(C)nn2)c(C(=O)N2CCC[C@@H](C)[C@H]2CNc2ccc(C(F)(F)F)cn2)c1` [Example A113, ((2S,3R)-3-Methyl-2-(((5-(trifluoromethyl)pyridin-2-yl)amino)methyl)piperidin-1-yl)(5-methyl-2-(4-methyl-1H-1,2,3-triazol-1-yl)phenyl)methanone] displayed an inhibition at 10 µM of 98%.

`Cc1ccc(-c2ccc(C)cc2C(=O)N2CCC[C@@H](C)[C@H]2CNc2ccc(C(F)(F)F)cn2)nc1` [Example A118, ((2S,3R)-3-Methyl-2-(((5-(trifluoromethyl)pyridin-2-yl)amino)methyl)piperidin-1-yl)(5-methyl-2-(5-methylpyridin-2-yl)phenyl)methanone]: 10 µM produced 95% inhibition.

The compound `Cc1ccc(-n2nccn2)c(C(=O)N2CCC[C@@H](C)[C@H]2CNc2nc(C)cs2)c1` [Example A124, ((2S,3R)-3-Methyl-2-(((4-methylthiazol-2-yl)amino)methyl)piperidin-1-yl)(5-methyl-2-(2H-1,2,3-triazol-2-yl)phenyl)methanone] registered an inhibition at 10 µM of 55%.
